pIC50: −log10 of the molar value. Counter-ions that a name gives are not always drawn.
Assays:
[1] = biological target: T1, human cloned dopamine D4.2 receptors (Homo sapiens, UniProt P21917, DEL265-296); assay: Inhibition of the binding of [3H]YM-09151-2 to human dopamine D4 receptors; conditions: [3H]YM-09151-2 0.06 nM, membranes of CHO cells; for inhibition at 0.05 µM / D4-bind. % inhibition of binding at 50 nM: at 50 nM compound; for inhibition at 0.05 µM: read-out: D4-bind. % inhibition of binding at 50 nM; for pIC50: read-out: D4-bind. IC50
T1 construct: expressed in transfected cells; host or cells: CHO cells (membranes)
T1 sequence (P21917 with tags, fused parts or gaps DEL265-296): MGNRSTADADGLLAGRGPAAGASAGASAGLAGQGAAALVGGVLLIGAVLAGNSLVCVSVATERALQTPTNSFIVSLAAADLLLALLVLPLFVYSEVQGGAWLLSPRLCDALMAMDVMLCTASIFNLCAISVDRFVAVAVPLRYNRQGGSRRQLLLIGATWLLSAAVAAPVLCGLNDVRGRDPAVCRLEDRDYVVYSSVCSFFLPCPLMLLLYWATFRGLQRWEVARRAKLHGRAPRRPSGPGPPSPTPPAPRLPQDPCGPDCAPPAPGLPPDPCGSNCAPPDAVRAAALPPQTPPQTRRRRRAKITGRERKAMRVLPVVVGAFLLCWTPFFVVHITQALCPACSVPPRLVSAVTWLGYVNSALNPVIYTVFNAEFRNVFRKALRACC
Experimental: Inhibition of the Binding of [^3H]YM-09151-2 to Human Dopamine D4 Receptors
By this method, the inhibition by drugs of the binding of [^3H]YM-09151-2 (0.06 nM) to membranes of human cloned dopamine D4.2 receptors expressed in CHO-cells is determined in vitro. Method modified from NEN Life Science Products, Inc., technical data certificate PC2533-10/96.

| inhibition at 0.05 µM [1] [%] | pIC50 [1] | SMILES | further results |
| --- | --- | --- | --- |
| – | – | O=C1CCc2ccccc2N1CCCCN1CCC(c2c[nH]c3ccc(F)cc23)CC1 (as salt: hydrochloride) [Compound 4, 5-Fluoro-3-{1-[4-(2-oxo-3,4-dihydro-2H-quinolin-1-yl)butan-1-yl]piperidin-4-yl}-1H-indole] | melting point: 212 to 213 °C |
| – | – | O=C1CCc2ccccc2N1CCCN1CC=C(c2c[nH]c3ccc(F)cc23)CC1 (as salt: oxalate) [Compound 3a, 5-Fluoro-3-{1-[3-(2-oxo-3,4-dihydro-2H-quinolin-1-yl)propan-1-yl]-3,6-dihydro-2H-pyridin-4-yl}-1H-indole] | melting point: 220 to 223 °C |
| 92 | – | O=C1CCc2ccccc2N1CCN1CCC(c2c[nH]c3ccc(F)cc23)CC1 [Compound 1a, 5-Fluoro-3-{1-[2-(2-oxo-3,4-dihydro-2H-quinolin-1-yl)ethyl]piperidin-4-yl}-1H-indole] | – |
| – | – | O=C1c2ccccc2CCN1CCCN1CCC(c2c[nH]c3ccc(F)cc23)CC1 [Compound 1b] | D4-bind. % inhibition of binding at 50 nM [1]: 97% |
| – | – | O=C1c2ccccc2CCN1CCCCN1CCC(c2c[nH]c3ccc(F)cc23)CC1 [Compound 1c] | D4-bind. % inhibition of binding at 50 nM [1]: 95% |
| – | 9.24 | O=C1CCc2ccccc2N1CCCN1CCC(c2c[nH]c3ccc(F)cc23)CC1 [Compound 2a, 5-Fluoro-3-{1-[3-(2-oxo-3,4-dihydro-2H-quinolin-1-yl)propan-1-yl]piperidin-4-yl}-1H-indole] | – |
| – | 7.92 | O=C1CCc2ccccc2N1CCCCCN1CCC(c2c[nH]c3ccc(F)cc23)CC1 [Compound 2b, 5-Fluoro-3-{1-[5-(2-oxo-3,4-dihydro-2H-quinolin-1-yl)pentan-1-yl]piperidin-4-yl}-1H-indole] | – |
| – | 9.16 | O=C1CCc2ccccc2N1CCCN1CCC(c2c[nH]c3ccc(Cl)cc23)CC1 [Compound 2c, 5-Chloro-3-{1-[3-(2-oxo-3,4-dihydro-2H-quinolin-1-yl)propan-1-yl]piperidin-4-yl}-1H-indole] | – |
| – | 8.10 | O=C1CCc2ccccc2N1CCCCN1CCC(c2c[nH]c3ccc(Cl)cc23)CC1 [Compound 2d, 5-Chloro-3-{1-[4-(2-oxo-3,4-dihydro-2H-quinolin-1-yl)butan-1-yl]piperidin-4-yl}-1H-indole] | – |
| – | 7.92 | O=C1CCc2ccccc2N1CCCCCN1CCC(c2c[nH]c3ccc(Cl)cc23)CC1 [Compound 2e, 5-Chloro-3-{1-[5-(2-oxo-3,4-dihydro-2H-quinolin-1-yl)pentan-1-yl]piperidin-4-yl}-1H-indole] | – |
| 78 | – | O=C1CCc2ccccc2N1CCCCN1CCC(c2c[nH]c3c(Cl)cccc23)CC1 [Compound 2f, 7-Chloro-3-{1-[4-(2-oxo-3,4-dihydro-2H-quinolin-1-yl)butan-1-yl]piperidin-4-yl}-1H-indole] | – |
| – | 8.12 | O=C1COc2ccccc2N1CCCCN1CCC(c2c[nH]c3ccc(F)cc23)CC1 [Compound 2g, 5-Fluoro-3-{1-[4-(3-oxo-3,4-dihydro-2H-1,4-benzoxazin-4-yl)butan-1-yl]piperidin-4-yl}-1H-indole] | – |
| – | 8.00 | O=C1COc2ccccc2N1CCCCN1CCC(c2c[nH]c3ccc(Cl)cc23)CC1 [Compound 2h, 5-Chloro-3-{1-[4-(3-oxo-3,4-dihydro-2H-1,4-benzoxazin-4-yl)butan-1-yl]piperidin-4-yl}-1H-indole] | – |
| – | 8.32 | O=C1CCc2ccccc2N1CCCCN1CCC(c2c[nH]c3ccc(F)cc23)CC1 [Compound 4, 5-Fluoro-3-{1-[4-(2-oxo-3,4-dihydro-2H-quinolin-1-yl)butan-1-yl]piperidin-4-yl}-1H-indole] | – |
| – | – | O=C(CCCN1CCC(c2c[nH]c3ccc(F)cc23)CC1)N1CCc2ccccc2C1 [Compound 7, 5-Fluoro-3-{1-[4-(3,4-dihydro-1H-isoquinolin-2-yl)-4-oxobutan-1-yl]piperidin-4-yl}-1H-indole] | melting point: 146 to 148 °C |
| 93 | – | O=C(CCN1CCC(c2c[nH]c3cccc(F)c23)CC1)N1CCc2ccccc2C1 [Compound 10a, 4-Fluoro-3-{1-[3-(3,4-dihydro-1H-isoquinolin-2-yl)-3-oxopropan-1-yl]piperidin-4-yl}-1H-indole] | – |
| 81 | – | O=C(CCCN1CCC(c2c[nH]c3cccc(F)c23)CC1)N1CCc2ccccc2C1 [Compound 10b, 4-Fluoro-3-{1-[4-(3,4-dihydro-1H-isoquinolin-2-yl)-4-oxobutan-1-yl]piperidin-4-yl}-1H-indole] | – |
| 21 | – | O=C(CCCCCN1CCC(c2c[nH]c3cccc(F)c23)CC1)N1CCc2ccccc2C1 [Compound 10c, 4-Fluoro-3-{1-[6-(3,4-dihydro-1H-isoquinolin-2-yl)-6-oxohexan-1-yl]piperidin-4-yl}-1H-indole] | – |
| 86 | – | O=C(CCCN1CCC(c2c[nH]c3cccc(Cl)c23)CC1)N1CCc2ccccc2C1 [Compound 10d, 4-Chloro-3-{1-[4-(3,4-dihydro-1H-isoquinolin-2-yl)-4-oxobutan-1-yl]piperidin-4-yl}-1H-indole] | – |
| 25 | – | O=C(CCCCN1CCC(c2c[nH]c3cccc(Cl)c23)CC1)N1CCc2ccccc2C1 [Compound 10e, 4-Chloro-3-{1-[5-(3,4-dihydro-1H-isoquinolin-2-yl)-5-oxopentan-1-yl]piperidin-4-yl}-1H-indole] | – |
| 17 | – | O=C(CCCCCN1CCC(c2c[nH]c3cccc(Cl)c23)CC1)N1CCc2ccccc2C1 [Compound 10f, 4-Chloro-3-{1-[6-(3,4-dihydro-1H-isoquinolin-2-yl)-6-oxohexan-1-yl]piperidin-4-yl}-1H-indole] | – |
| 65 | – | O=C(CCCCN1CCC(c2c[nH]c3ccc(F)cc23)CC1)N1CCc2ccccc2C1 [Compound 10g, 5-Fluoro-3-{1-[5-(3,4-dihydro-1H-isoquinolin-2-yl)-5-oxopentan-1-yl]piperidin-4-yl}-1H-indole] | – |
| 50 | – | O=C(CCCCCN1CCC(c2c[nH]c3ccc(F)cc23)CC1)N1CCc2ccccc2C1 [Compound 10h, 5-Fluoro-3-{1-[6-(3,4-dihydro-1H-isoquinolin-2-yl)-6-oxohexan-1-yl]piperidin-4-yl}-1H-indole] | – |
| 94 | – | O=C(CCN1CCC(c2c[nH]c3cc(Cl)ccc23)CC1)N1CCc2ccccc2C1 [Compound 10i, 6-Chloro-3-{1-[3-(3,4-dihydro-1H-isoquinolin-2-yl)-3-oxopropan-1-yl]piperidin-4-yl}-1H-indole] | – |
| 70 | – | O=C(CCCCCN1CCC(c2c[nH]c3cc(Cl)ccc23)CC1)N1CCc2ccccc2C1 [Compound 10j, 6-Chloro-3-{1-[6-(3,4-dihydro-1H-isoquinolin-2-yl)-6-oxohexan-1-yl]piperidin-4-yl}-1H-indole] | – |
| 95 | – | O=C(CCCN1CCC(c2c[nH]c3c(Cl)cccc23)CC1)N1CCc2ccccc2C1 [Compound 10k, 7-Chloro-3-{1-[4-(3,4-dihydro-1H-isoquinolin-2-yl)-4-oxobutan-1-yl]piperidin-4-yl}-1H-indole] | – |
| – | – | O=C(CCCCN1CCC(c2c[nH]c3c(Cl)cccc23)CC1)N1CCc2ccccc2C1 [Compound 10l] | D4-bind. % inhibition of binding at 50 nM [1]: 82% |
| 69 | – | O=C(CCCCCN1CCC(c2c[nH]c3c(Cl)cccc23)CC1)N1CCc2ccccc2C1 [Compound 10m, 7-Chloro-3-{1-[6-(3,4-dihydro-1H-isoquinolin-2-yl)-6-oxohexan-1-yl]piperidin-4-yl}-1H-indole] | – |

| SMILES | inhibition at 0.05 µM [1] [%] | pIC50 [1] | further results |
| --- | --- | --- | --- |
| O=C1CCc2ccccc2N1CCCN1CC=C(c2c[nH]c3ccc(F)cc23)CC1 [Compound 3a, 5-Fluoro-3-{1-[3-(2-oxo-3,4-dihydro-2H-quinolin-1-yl)propan-1-yl]-3,6-dihydro-2H-pyridin-4-yl}-1H-indole] | – | 9.15 | – |
| O=C1CCc2ccccc2N1CCCCN1CC=C(c2c[nH]c3ccc(F)cc23)CC1 [Compound 3b, 5-Fluoro-3-{1-[4-(2-oxo-3,4-dihydro-2H-quinolin-1-yl)butan-1-yl]-3,6-dihydro-2H-pyridin-4-yl}-1H-indole] | – | 8.30 | – |
| O=C1CCc2ccccc2N1CCCCCN1CC=C(c2c[nH]c3ccc(F)cc23)CC1 [Compound 3c, 5-Fluoro-3-{1-[5-(2-oxo-3,4-dihydro-2H-quinolin-1-yl)pentan-1-yl]-3,6-dihydro-2H-pyridin-4-yl}-1H-indole] | – | 7.82 | – |
| Fc1ccc2[nH]cc(C3=CCN(CCCN4CCCc5ccccc54)CC3)c2c1 [Compound 9l, 5-Fluoro-3-{1-[3-(3,4-dihydro-2H-quinolin-1-yl)propan-1-yl]-3,6-dihydro-2H-pyridin-4-yl}-1H-indole] | – | 9.29 | – |
| Fc1ccc2[nH]cc(C3=CCN(CCCCN4CCCc5ccccc54)CC3)c2c1 [Compound 9m, 5-Fluoro-3-{1-[4-(3,4-dihydro-2H-quinolin-1-yl)butan-1-yl]-3,6-dihydro-2H-pyridin-4-yl}-1H-indole] | – | 7.77 | – |
| Fc1ccc2[nH]cc(C3=CCN(CCCCCN4CCCc5ccccc54)CC3)c2c1 [Compound 9n, 5-Fluoro-3-{1-[5-(3,4-dihydro-2H-quinolin-1-yl)pentan-1-yl]-3,6-dihydro-2H-pyridin-4-yl}-1H-indole] | – | 7.28 | – |

From US7276508B2, “Indole derivatives useful for the treatment of CNS disorders” (H. Lundbeck A/S, priority 2000, dated 2007)
